Measurements published in PMC13254535, “The RecBCD complex interacts directly with the DNA sliding clamp in Escherichia coli” (Nucleic Acids Research, 2026).
Residues, ends and D or L forms follow the SMILES beside them.

Experiments:
Format in all cases: binding
Parameters in all cases: made in house
[1] = target: T1, β-clamp (Escherichia coli, UniProt P0A988); assay: Isothermal titration calorimetry (ITC), β-clamp titrated into peptide; settings: 25°C; pH 7.4; one-site model; n = 3; affected by inaccurate peptide concentration and methionine oxidation
T1 sequence (P0A988 whole entry): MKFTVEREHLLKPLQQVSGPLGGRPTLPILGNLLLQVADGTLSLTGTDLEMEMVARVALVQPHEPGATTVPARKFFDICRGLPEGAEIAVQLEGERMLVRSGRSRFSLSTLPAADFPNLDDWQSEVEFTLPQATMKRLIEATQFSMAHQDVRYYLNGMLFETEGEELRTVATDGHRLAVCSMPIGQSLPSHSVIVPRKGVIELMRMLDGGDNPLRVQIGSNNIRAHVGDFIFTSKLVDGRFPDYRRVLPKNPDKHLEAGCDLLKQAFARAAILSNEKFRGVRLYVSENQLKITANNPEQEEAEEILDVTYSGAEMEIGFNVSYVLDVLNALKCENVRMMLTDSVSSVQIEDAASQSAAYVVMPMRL
Description: (§1) Unlabeled and ^2H, ^13C, ^15N-labeled E. coli β-clamp was expressed and purified as previously described. The β-clamp concentration was determined by absorbance at 280 nm measured on a NanoDrop ND-1000 spectrophotometer (Thermo Fisher Scientific Inc.) and using an extinction coefficient calculated by the Expasy ProtParam web tool (https://web.expasy.org/protparam/). All β-clamp concentrations are listed as the protomer concentration. The peptides were readily soluble at micromolar concentration, although at high micromolar concentrations, we cannot rule out the presence of aggregates.
Unlabeled β-clamp was buffer-exchanged into 20 mM sodium phosphate, 100 mM NaCl, 1 mM tris(2-carboxyethyl)phosphine (TCEP), pH 7.4 using a 15-ml spin filter (10 000 MWCO) (Millipore, Darmstadt, Germany). DMSO was added to the β-clamp sample to a final concentration of 0.02% (v/v). RecB nuclease motif peptide ([…]) (dissolved in 100% DMSO) was diluted into the same buffer as above, with a final DMSO concentration of 0.02% (v/v). […] The isothermal titration calorimetry (ITC) experiments were repeated three times and were recorded at 25°C on a Malvern MicroCal PEAQ-ITC instrument (Malvern, Worcestershire, United Kingdom) using a stir speed of 750 rpm. […]

[2] = target: T1, β-clamp; assay: 2D TROSY-1H-15N-HSQC chemical shift perturbation of β-clamp; settings: 140 µM 2H,13C,15N-labeled β-clamp, 700 µM peptide (five-fold molar excess); 37°C; 20 mM sodium phosphate, 100 mM NaCl, 5 mM DTT, 2% DMSO, pH 7.4
Description: as §1
2D TROSY-^1H-^15N-HSQC (Two-Dimensional Transverse Relaxation Optimized Spectroscopy Heteronuclear Single Quantum Coherence experiment correlating ^1H and ^15N nuclei) spectra were recorded of 140 µM ^2H, ^13C, ^15N-labeled β-clamp with and without the addition of 700 µM RecB nuclease motif peptide ([…]) in 20 mM sodium phosphate, 100 mM NaCl, 5 mM DTT, 5% (v/v) D2O, 125 µM DSS, 2% (v/v) DMSO, pH 7.4. […] The samples were transferred to 5-mm Shigemi tubes, and the NMR spectra were recorded at 37°C on a Bruker Avance III 750 MHz spectrometer equipped with a cryoprobe. […] The spectra were processed in Topspin (Bruker) and analyzed in CcpNmr Analysis. […] Chemical shift perturbations (CSPs) were calculated using the following equation [57]: […]

[3] = target: T1, β-clamp; assay: Saturation transfer difference (STD)-NMR of peptides with β-clamp; settings: 150 µM peptide, 1.5 µM β-clamp; 25°C; 20 mM sodium phosphate, 100 mM NaCl, 5 mM DTT, 0.3% DMSO, 5% D2O, pH 7.4; 600 MHz
Description: All peptides, except Pol III C-terminal ([sequence]), were N-terminally acetylated and C-terminally amidated to remove charges in the N-and C-termini, not present in the context of the full-length proteins.
Unlabeled and ^2H, ^13C, ^15N-labeled E. coli β-clamp was expressed and purified as previously described [54]. The β-clamp concentration was determined by absorbance at 280 nm measured on a NanoDrop ND-1000 spectrophotometer (Thermo Fisher Scientific Inc.) and using an extinction coefficient calculated by the Expasy ProtParam web tool (https://web.expasy.org/protparam/) [55]. All β-clamp concentrations are listed as the protomer concentration. The peptides were readily soluble at micromolar concentration, although at high micromolar concentrations, we cannot rule out the presence of aggregates.
Saturation transfer difference (STD)-nuclear magnetic resonance (NMR) experiments were performed at 25°C on a Bruker Avance III HD 600 MHz NMR spectrometer equipped with a 5-mm QCI Cryoprobe. […] Samples were transferred to 5-mm NMR tubes.

What does the source list for CSCC[C@H](NC(=O)[C@H](CCC(=O)O)NC(=O)[C@@H](NC(=O)[C@H](CCC(N)=O)NC(=O)[C@H](CCCCN)NC(C)=O)C(C)C)C(=O)N[C@@H](CCC(=O)O)C(=O)N[C@@H](Cc1ccccc1)C(=O)N[C@@H](Cc1ccc(O)cc1)C(N)=O [QVEMEF] (Ac-KQVEMEFY-NH2)?
N-value (stoichiometry) [1]: 0.39 ± 0.02; chemical shift perturbations (CSPs) of β-clamp residues [2]: The largest CSPs localized to residues surrounding the canonical CBM binding pocket, including L177, Y244, V247, I317, S345, Q348, V361, M364, and R365; STD-NMR binding [3]: shows a distinct STD signal, indicating specific interaction
